Drawing on US20150175603A1, “TRICYCLIC COMPOUNDS AS KAT II INHIBITORS” (PFIZER INC., priority 2012, published 2015), this text covers IC50 for 32 compounds.

Counter-ions that a name gives are not always drawn. Like-named read-outs stand apart in the source and are kept apart here.

In the assay the target is human KAT II (hKAT II) enzyme (Homo sapiens, UniProt Q8N5Z0). Briefly: KAT II Inhibition Spectra Assay. It counts as biochemical. Conditions: single determination unless marked a (geometric mean of 2-4 determinations), decrease in OD370, L-kynurenine substrate, 37° C. for 15-20 h, read-out: KATII IC50. Here is the method:
KAT II Inhibition Spectra Assay
Formation of kynurenic acid (KYNA) is indirectly assessed by a decrease in light absorbance at 370 nm (OD370) as the L-kynurenine (KYN) substrate is converted by the human KAT II (hKAT II) enzyme into KYNA. An inhibitor would therefore inhibit the decrease in OD370.
The protocol was performed by placing the following reagents into a Costar 384 well black plate (30 μL total assay volume/well): • 10 μL of 3× concentrated compound; • 10 μL of 3× concentrated substrate mix (BGG (Sigma G-5009); 3 mM L-Kynurenine in 150 mM Tris Acetate (Sigma K3750); 3 mM α-ketoglutaric acid in 150 mM Tris Acetate (Sigma K2010); and 210 μM pyridoxal 5-phosphate (PLP) in 150 mM Tris Acetate (Sigma 9255)); and • 10 μL of 3× concentrated enzyme (15 nM enzyme in 150 mM Tris Acetate with 0.3% bovine serum).
Plates were sealed and incubated at 37° C. for 15-20 h before reading OD370 on a SpectraMax Plus plate reader. IC50s were generated by comparing the efficacy of compounds across a concentration range to inhibit a reduction in the OD370 value relative to assay wells with DMSO added in place of concentrated compound. Biological data for the Examples may be found in Table 2.

human KAT II (hKAT II) enzyme, sequence (Q8N5Z0 30-425): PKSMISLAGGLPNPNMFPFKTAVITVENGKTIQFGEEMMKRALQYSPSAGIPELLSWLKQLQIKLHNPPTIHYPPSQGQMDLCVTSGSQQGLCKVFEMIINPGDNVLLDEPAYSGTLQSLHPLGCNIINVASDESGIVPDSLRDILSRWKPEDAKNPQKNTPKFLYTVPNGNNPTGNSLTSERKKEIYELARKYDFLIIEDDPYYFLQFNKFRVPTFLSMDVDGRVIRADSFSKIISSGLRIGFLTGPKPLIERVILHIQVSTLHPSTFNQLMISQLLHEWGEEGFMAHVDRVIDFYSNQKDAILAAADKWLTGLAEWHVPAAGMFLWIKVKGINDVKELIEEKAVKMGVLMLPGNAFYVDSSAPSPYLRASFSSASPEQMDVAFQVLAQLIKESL

In the case of `NC1Cc2cc(-c3cccc(F)c3)ccc2-n2c1n[nH]c2=O` (centres unmarked) [Example 34, 4—amino—7—(3—fluorophenyl)—4,5—dihydro[1,2,4]triazolo[4,3—a]quinolin—1(2H)—one, trifluoroacetate salt], the IC50 (in general, the concentration that gives 50% inhibition) was 0.415 µM.
As to `NC1Cc2cc(-c3cccc4cnccc34)ccc2-n2c1n[nH]c2=O` (centres unmarked) [Example 12, 4—amino—7—(isoquinolin—5—yl)—4,5—dihydro[1,2,4]triazolo[4,3—a]quinolin—1(2H)—one, trifluoroacetate salt], the concentration for half-maximal inhibition (IC50) was determined as 0.334 µM.
Take `COc1cccc(-c2ccc3c(c2)CC(N)c2n[nH]c(=O)n2-3)c1` (centres unmarked) [Example 28, 4—amino—7—(3—methoxyphenyl)—4,5—dihydro[1,2,4]triazolo[4,3—a]quinolin—1(2H)—one, trifluoroacetate salt]: the IC50 is 0.357 µM.
As to `Cn1cc(-c2ccc3c(c2)CC(N)c2n[nH]c(=O)n2-3)cn1` (centres unmarked) [Example 18, 4—amino—7—(1—methyl—1H—pyrazol—4—yl)—4,5—dihydro[1,2,4]triazolo[4,3—a]quinolin—1(2H)—one, trifluoroacetate salt], the IC50 is 1.36 µM.
Consider `NC1Cc2cc(Oc3ccccc3)ccc2-n2c1n[nH]c2=O` (centres unmarked) [Example 48, 4—amino—7—phenoxy—4,5—dihydro[1,2,4]triazolo[4,3—a]quinolin—1(2H)—one, hydrochloride salt], for which the IC50 came to 0.0837 µM.
Consider `COc1cccc(Oc2ccc3c(c2)CC(N)c2nncn2-3)c1` (single isomer, unassigned; ent-2) [Example 5, 7-(3-Methoxyphenoxy)-4,5-dihydro[1,2,4]triazolo[4,3-a]quinolin-4-amine, ENT-2], for which the IC50 was 1.24 µM.
In the case of `Cn1cc2c(-c3ccc4c(c3)CC(N)c3n[nH]c(=O)n3-4)cccc2n1` (centres unmarked) [Example 41, 4—amino—7—(2—methyl—2H—indazol—4—yl)—4,5—dihydro[1,2,4]triazolo[4,3—a]quinolin—1(2H)—one, trifluoroacetate salt], the IC50 turned out to be 1.08 µM.
As for `COc1cccc(Oc2ccc3c(c2)CC(N)c2n[nH]c(=O)n2-3)c1` (single isomer, unassigned; ent-1) [Example 1, 4-Amino-7-(3-methoxyphenoxy)-4,5-dihydro[1,2,4]triazolo[4,3-a]quinolin-1(2H)-one ENT-1, hydrochloride salt], for the setting “hydrochloride salt”, the IC50 was 0.188 µM.
`CCOc1cc(-c2ccc3c(c2)CC(N)c2n[nH]c(=O)n2-3)ccn1` (centres unmarked) [Example 17, 4—amino—7—(2—ethoxypyridin—4—yl)—4,5—dihydro[1,2,4]triazolo[4,3—a]quinolin—1(2H)—one, trifluoroacetate salt]: the IC50 was 1.83 µM.
For the compound `COc1cc2c(cc1Cc1ccccc1)CC(N)c1nncn1-2` (centres unmarked) [Example 46, 7—benzyl—8—methoxy—4,5—dihydro[1,2,4]triazolo[4,3—a]quinolin—4—amine, hydrochloride salt], the 50% inhibitory concentration (IC50) came out at 1.13 µM.
Consider `COc1ccc(-c2ccc3c(c2)CC(N)c2n[nH]c(=O)n2-3)cn1` (centres unmarked) [Example 22, 4—amino—7—(6—methoxypyridin—3—yl)—4,5—dihydro[1,2,4]triazolo[4,3—a]quinolin—1(2M—one, trifluoroacetate salt], for which the IC50 came out at 1.9 µM.
For the compound `NC1Cc2cc(-c3cc(C(F)(F)F)ccc3Cl)ccc2-n2c1n[nH]c2=O` (centres unmarked) [Example 21, 4—amino—7—[2—chloro—5—(trifluoromethyl)phenyl]—4,5—dihydro[1,2,4]triazolo[4,3—a]quinolin—1(2H)—one, trifluoroacetate salt], the IC50 was 1.25 µM.
Still for that read-out and setting: then `NC1Cc2cc(-c3cccc4ncccc34)ccc2-n2c1n[nH]c2=O` (centres unmarked) [Example 16, 4—amino—7—(quinolin—5—yl)—4,5—dihydro[1,2,4]triazolo[4,3—a]quinolin—1(2H)—one, trifluoroacetate salt], with 0.664 µM.
Take `NC1Cc2cc(-c3cccc(OC(F)(F)F)c3)ccc2-n2c1n[nH]c2=O` (centres unmarked) [Example 23, 4—amino—7—[3—(trifluoromethoxy)pheny1]—4,5—dihydro[1,2,4]triazolo[4,3—a]quinolin—1(2H)—one, trifluoroacetate salt]: the IC50 came out at 0.684 µM.
For `COc1ccc(F)cc1-c1ccc2c(c1)CC(N)c1n[nH]c(=O)n1-2` (centres unmarked) [Example 32, 4—amino—7—(5—fluoro—2—methoxyphenyl)—4,5—dihydro[1,2,4]triazolo[4,3—a]quinolin—1(2H)—one, trifluoroacetate salt], the IC50 amounted to 0.302 µM.
As for `NC1Cc2cc(Oc3cccc(C(F)(F)F)c3)ccc2-n2cnnc21` (centres unmarked) [Example 10, 7—[3—(trifluoromethyl)phenoxy]—4,5—dihydro[1,2,4]triazolo[4,3—a]quinolin—4—amine, hydrochloride salt], the IC50 worked out at 0.185 µM.
Still for that read-out and setting: next, `COc1cccc(Oc2ccc3c(c2)CC(N)c2nncn2-3)c1` (single isomer, unassigned; ent-1) [Example 4, 7-(3-Methoxyphenoxy)-4,5-dihydro[1,2,4]triazolo[4,3-a]quinolin-4-amine, ENT-1]: 0.107 µM; `CCOc1ccc(Cl)cc1-c1ccc2c(c1)CC(N)c1n[nH]c(=O)n1-2` (centres unmarked) [Example 39, 4—amino—7—(5—chloro—2—ethoxyphenyl)—4,5—dihydro[1,2,4]triazolo[4,3—a]quinolin—1(2H)—one, trifluoroacetate salt]: 0.968 µM.
The same measure, in the same setting: then `COc1cccc(Oc2ccc3c(c2)CC(N)c2n[nH]c(=O)n2-3)c1` (single isomer, unassigned; ent-2) [Example C9, 4-amino-7-(3-methoxyphenoxy)-4,5-dihydro[1,2,4]triazolo[4,3-a]quinolin-1(2H)-one ENT-2, hydrochloride salt], with 3.72 µM; and `NC1Cc2cc(Oc3ccccc3)cnc2-n2cnnc21` (single isomer, unassigned) [Example 8, 3—phenoxy—5,6—dihydro[1,2,4]triazolo[4,3—a][1,8]naphthyridin—6—amine ENT—1], with 0.286 µM; and `COc1ccccc1-c1ccc2c(c1)CC(N)c1n[nH]c(=O)n1-2` (centres unmarked) [Example 19, 4—amino—7—(2—methoxyphenyl)—4,5—dihydro[1,2,4]triazolo[4,3—a]quinolin—1(2H)—one, trifluoroacetate salt], with 0.751 µM.
For `Cn1nccc1-c1ccc2c(c1)CC(N)c1n[nH]c(=O)n1-2` (centres unmarked) [Example 36, 4—amino—7—(1—methyl—1H—pyrazol—5—yl)—4,5—dihydro[1,2,4]triazolo[4,3—a]quinolin—1(2H)—one, trifluoroacetate salt], the IC50 was 0.632 µM.
Consider `Cc1ccc(C)c(-c2ccc3c(c2)CC(N)c2n[nH]c(=O)n2-3)c1` (centres unmarked) [Example 38, 4—amino—7—(2,5-dimethylphenyl)—4,5—dihydro[1,2,4]triazolo[4,3—a]quinolin—1(2H)—one, trifluoroacetate salt], for which the IC50 came to 0.591 µM.
Still for that read-out and setting: next, `NC1Cc2cc(-c3cccc(Cl)c3)ccc2-n2c1n[nH]c2=O` (centres unmarked) [Example 14, 4—amino—7—(3—chlorophenyl)—4,5—dihydro[1,2,4]triazolo[4,3—a]quinolin—1(2H)—one, trifluoroacetate salt]: 0.156 µM; `NC1Cc2cc(-c3ccc(F)cc3)ccc2-n2c1n[nH]c2=O` (centres unmarked) [Example 24, 4—amino—7—(4—fluorophenyl)—4,5—dihydro[1,2,4]triazolo[4,3—a]quinolin—1(2H)—one. trifluoroacetate salt]: 1.08 µM; `COc1ncccc1-c1ccc2c(c1)CC(N)c1n[nH]c(=O)n1-2` (centres unmarked) [Example 33, 4—amino—7—(2—methoxypyridin—3—yl)—4,5—dihydro[1,2,4]triazolo[4,3—a]quinolin—1(2H)—one, trifluoroacetate salt]: 0.197 µM.
In the case of `NC1Cc2cc(-c3ccccc3F)ccc2-n2c1n[nH]c2=O` (centres unmarked) [Example 29, 4—amino—7—(2—fluorophenyl)—4,5—dihydro[1,2,4]triazolo[4,3—a]quinolin—1(2H)—one, trifluoroacetate salt], the 50% inhibitory concentration (IC50) was 0.361 µM.
For the compound `NC1Cc2cc(-c3ccc(Cl)cc3Cl)ccc2-n2c1n[nH]c2=O` (centres unmarked) [Example 35, 4—amino—7—(2,4—dichlorophenyl)—4,5—dihydro[1,2,4]triazolo[4,3—a]quinolin—1(2H)—one, trifluoroacetate salt], the 50% inhibitory concentration (IC50) stood at 1.38 µM.
Regarding `Cn1ncc2c(-c3ccc4c(c3)CC(N)c3n[nH]c(=O)n3-4)cccc21` (centres unmarked) [Example 15, 4—amino—7(1—methyl—1H—indazol—4—yl)—4,5—dihydro[1,2,4]triazolo[4,3—a]quinolin—1(2H)—one, trifluoroacetate salt], the IC50 came out at 0.262 µM.
For the compound `NC1Cc2cc(Oc3ccccc3)ncc2-n2cnnc21` (centres unmarked) [Example 7, 7-Phenoxy-4,5-dihydro[1,2,4]triazolo[4,3-a][1,7]naphthyridin-4-amine, hydrochloride salt], the IC50 is 0.413 µM.
Regarding `NC1Cc2cc(-c3cccc(F)c3F)ccc2-n2c1n[nH]c2=O` (centres unmarked) [Example 26, 4—amino—7—(2,3-difluorophenyl)—4,5—dihydro[1,2,4]triazolo[4,3—a]quinolin—1(2H)—one, trifluoroacetate salt], the IC50 worked out at 0.364 µM.
As to `COc1cc2c(cc1Cc1ccccc1)CC(N)c1n[nH]c(=O)n1-2` (centres unmarked) [Example 47, 4—amino—7—benzyl—8—methoxy—4,5—dihydro[1,2,4]triazolo[4,3—a]quinolin—1(2H)—one, hydrochloride salt], the IC50 amounted to 0.637 µM.
